# Data taken from patent US4667030A, “Hydrazide succinimide derivatives of antineoplastic indole-dihydroindole alkaloids” (priority 1985, dated 1987).
# Structures can show the parent of a compound that is named as a salt.
# Experiments:
# [1] = system: CCRF-CEM, a human acute lymphoblastic leukemia cell line; assay: CCRF-CEM cytotoxicity screen (cytostatic activity); format: cell-based; conditions: for IC50: Homo sapiens, read-out: IC50 (50% minimum inhibitory concentration)
# Experimental: The compounds of this invention have utility as anti-neoplastic compounds active against transplanted tumors in mice. They also have […]. As evidence of such utility, the cytostatic activity of the compounds was measured by standard procedures against CCRF-CEM, a human acute lymphoblastic leukemia cell line. In the table, column 1 gives the name of the compound, and column 2 the 50% minimum inhibitory concentration of the drug from column 1 in mcg./ml.
# [2] = system: 6C3HED lymphosarcoma; assay: In vivo test, transplanted 6C3HED lymphosarcoma in mice; conditions: for % INHIBITION / In vivo test: Toxic: 6C3HED; for activity against transplanted tumor: 6C3HED lymphosarcoma, mice
# [3] = system: B-16 Sub.C. melanoma; assay: In vivo test, transplanted B-16 Sub.C. melanoma in mice; conditions: for activity against transplanted tumor: B-16 Sub.C. melanoma, mice
# [4] = system: C-26 colon carcinoma; assay: In vivo test, transplanted C-26 colon carcinoma in mice; conditions: for activity against transplanted tumor: C-26 colon carcinoma, mice
# [5] = system: X-5563 plasma cell myeloma; assay: In vivo test, transplanted X-5563 plasma cell myeloma in mice; conditions: for activity against transplanted tumor: X-5563 plasma cell myeloma, mice
# [6] = system: vincristine-resistant leukemias; conditions: common neoplasms including germ-cell tumors; cited from earlier work
molecule,measurement,setting,value
CC[C@H]1C[C@@H]2CN(CCc3c([nH]c4ccccc34)[C@@](C(=O)OC)(c3cc4c(cc3OC)N(C)[C@H]3[C@@](O)(C(=O)NN5C(=O)CCC5=O)[C@H](O)[C@]5(CC)C=CCN6CC[C@]43[C@@H]65)C2)C1 [4'-deoxy-4-desacetylleurosidine 3-carboxhydrazide N^2-succinimide sulfate],IC50,[1],0.075 µg/mL
CC[C@]1(O)C[C@@H]2CN(CCc3c([nH]c4ccccc34)[C@@](C(=O)OC)(c3cc4c(cc3OC)N(C)[C@H]3[C@@](O)(C(=O)NN5C(=O)CCC5=O)[C@H](O)[C@]5(CC)C=CCN6CC[C@]43[C@@H]65)C2)C1 [4-Desacetyl VLB 3-carboxhydrazide N^2 --succinimide sulfate],IC50,[1],0.02 µg/mL
same,% INHIBITION,"[2]; i.v. x 1, 1.25 mg/kg",100%
same,% INHIBITION,"[2]; i.v. x 1, 2.5 mg/kg",100%
same,In vivo test: Toxic,"[2]; i.v. x 1, 5 mg/kg",Toxic
CC[C@]1(O)C[C@@H]2CN(CCc3c([nH]c4ccccc34)[C@@](C(=O)OC)(c3cc4c(cc3OC)N(C)[C@H]3[C@@](O)(C(=O)NN5C(=O)CCCC5=O)[C@H](O)[C@]5(CC)C=CCN6CC[C@]43[C@@H]65)C2)C1 [4-Desacetyl VLB Hydrazide N^2 --Glutarimide Sulfate],% INHIBITION,"[2]; i.v. x 1, 0.0625 mg/kg",79%
same,% INHIBITION,"[2]; i.v. x 1, 0.125 mg/kg",80%
same,% INHIBITION,"[2]; i.v. x 1, 0.25 mg/kg",100%
same,% INHIBITION,"[2]; i.v. x 1, 0.5 mg/kg",100%
same,% INHIBITION,"[2]; i.v. x 1, 1 mg/kg",100%
same,In vivo test: Toxic,"[2]; i.v. x 1, 2 mg/kg",Toxic
same,In vivo test: Toxic,"[2]; i.v. x 1, 4 mg/kg",Toxic
same,In vivo test: Toxic,"[2]; i.v. x 1, 8 mg/kg",Toxic
CCC(=O)O[C@@H]1[C@]2(CC)C=CCN3CC[C@@]4(c5cc([C@@]6(C(=O)OC)C[C@H]7CN(CCc8c6[nH]c6ccccc86)C[C@](O)(CC)C7)c(OC)cc5N(C)[C@H]4[C@@]1(O)C(=O)NN1C(=O)CCC1=O)[C@@H]32 [4-Propionyl VLB 3-carboxhydrazide N^2 --succinimide sulfate],IC50,[1],0.01 µg/mL
same,% INHIBITION,"[2]; i.v. x 1, 1.25 mg/kg",100%
same,% INHIBITION,"[2]; i.v. x 1, 2.5 mg/kg",100%
same,In vivo test: Toxic,"[2]; i.v. x 1, 5 mg/kg",Toxic
CC[C@]1(O)C[C@@H]2CN(CCc3c([nH]c4ccccc34)[C@@](C(=O)OC)(c3cc4c(cc3OC)N(C)[C@H]3[C@@](O)(C(=O)NN5C(=O)CCC5=O)[C@H](OC(=O)CCC(=O)O)[C@]5(CC)C=CCN6CC[C@]43[C@@H]65)C2)C1 [4-Succinoyl VLB 3-carboxhydrazide N^2-succinimide],IC50,[1],0.5 µg/mL
CC[C@]1(O)C[C@@H]2CN(CCc3c([nH]c4ccccc34)[C@@](C(=O)OC)(c3cc4c(cc3OC)N(C)[C@H]3[C@@](O)(C(=O)NN5C(=O)CCCC5=O)[C@H](O)[C@]5(CC)C=CCN6CC[C@]43[C@@H]65)C2)C1 [4-desacetyl VLB 3-carboxhydrazide N^2-glutarimide],activity against transplanted tumor,[2],outstanding activity
same,activity against transplanted tumor,[3],outstanding activity
same,activity against transplanted tumor,[4],outstanding activity
same,activity against transplanted tumor,[5],outstanding activity
CC[C@]1(O)C[C@@H]2CN(CCc3c([nH]c4ccccc34)[C@@](C(=O)OC)(c3cc4c(cc3OC)N(C)[C@H]3[C@@](O)(C(=O)NN5C(=O)CCC5=O)[C@H](O)[C@]5(CC)C=CCN6CC[C@]43[C@@H]65)C2)C1 [4-desacetyl VLB 3-carboxhydrazide N^2-succinimide],activity against transplanted tumor,[2],outstanding activity
same,activity against transplanted tumor,[3],outstanding activity
same,activity against transplanted tumor,[4],outstanding activity
same,activity against transplanted tumor,[5],outstanding activity
"CC[C@]1(O)C[C@@H]2CN(CCc3c([nH]c4ccccc34)[C@@](C(=O)OC)(c3cc4c(cc3OC)N(C)[C@H]3[C@@](O)(C(N)=O)[C@H](O)[C@]5(CC)C=CCN6CC[C@]43[C@@H]65)C2)C1 [vindesine, 4-desacetyl VLB 3-carboxamide]",effectiveness in treating leukemias and neoplasms,[6],effective in treating some vincristine-resistant leukemias in addition to many common neoplasms including germ-cell tumors
VLB 3-carboxhydrazide N^2 --succinimide sulfate,IC50 (50% minimum inhibitory concentration),[1],0.01 µg/mL
same,% INHIBITION,"[2]; i.v. x 1, 0.0625 mg/kg",11%
same,% INHIBITION,"[2]; i.v. x 1, 0.125 mg/kg",94%
same,% INHIBITION,"[2]; i.v. x 1, 0.25 mg/kg",100%
same,% INHIBITION,"[2]; i.v. x 1, 0.5 mg/kg",100%
same,% INHIBITION,"[2]; i.v. x 1, 1 mg/kg",100%
same,In vivo test: Toxic,"[2]; i.v. x 1, 2 mg/kg",Toxic
same,In vivo test: Toxic,"[2]; i.v. x 1, 4 mg/kg",Toxic
same,% INHIBITION,"[3]; B-16 Sub. C., i.v. 1 & 7, dose 0.5",51%
same,% INHIBITION,"[3]; B-16 Sub. C., i.v. 1 & 7, dose 1",82%
same,% INHIBITION,"[3]; B-16 Sub. C., i.v. 1 & 7, dose 2",91%
same,In vivo test: Toxic,"[3]; B-16 Sub. C., i.v. 1 & 7, dose 4",Toxic
same,% INHIBITION,"[3]; B-16 Sub. C., i.v. 1 & 7, dose 25 (so in the source)",8%
same,% INHIBITION,"[4]; C-26, i.v. 1 & 7, dose 0.25",0%
same,% INHIBITION,"[4]; C-26, i.v. 1 & 7, dose 0.5",0%
same,% INHIBITION,"[4]; C-26, i.v. 1 & 7, dose 1",50%
same,% INHIBITION,"[4]; C-26, i.v. 1 & 7, dose 2",73%
same,In vivo test: Toxic,"[4]; C-26, i.v. 1 & 7, dose 4",Toxic
same,% INHIBITION,"[5]; X5563, i.v. 1 & 7, dose 0.25",25%
same,% INHIBITION,"[5]; X5563, i.v. 1 & 7, dose 0.5",30%
same,% INHIBITION,"[5]; X5563, i.v. 1 & 7, dose 1",59%
same,% INHIBITION,"[5]; X5563, i.v. 1 & 7, dose 2",94%
same,In vivo test: Toxic,"[5]; X5563, i.v. 1 & 7, dose 4",Toxic
